From patent US11014934B2, “Antiseptic drug” (AO “TATKHIMFARMPREPARATY”, priority 2017, dated 2021)

Legend:
[1] = system: Staphylococcus aureus ATCC 209p; test: Disinfectant activity in contaminated metal surface test; assay type: cell-based; conditions: for Inhibition rate (Mean ± SD) of Staphylococcus aureus ATCC 209p growth: 0.1% solution; for Inhibition rate (M ± SD) Staphylococcus aureus ATCC 209p: 0.2% solution
Experimental: (§1) The preparation of the bacterial suspension was carried out similarly to the procedure for determining the disinfecting activity of compound I in suspension (see example 7). To simulate protein contamination of the metal surface, a BSA solution was added to the bacterial suspension to a final concentration of 0.4%. The surface of the metal table was drawn into squares, the number of which depended on the number of strains studied. The test surface should be clean, intact, sterile. To do this, the table was cleaned with alcohol, and then with sterile water. A microbial suspension in a volume of 0.125 ml was applied to a surface area of 5×5 cm and distributed with a sterile spatula over the entire square area. After the microbial suspension was dried, a 0.5 ml solution of compound I (miramistin and benzalkonium chloride being a control) was uniformly applied to the surface at a working concentration of 0.1 and 0.2% and distributed over the square surface with a sterile spatula, and then kept for 1, 5, and 15 minutes.
(§2) After the end of exposure, the contaminated surface was thoroughly wiped with a sterile gauze cloth (size 5×5 cm) soaked in 1 ml of a neutralizer solution and the cloth was immersed in 10 ml of sterile physiological saline in a flask, which was shaken for 10 minutes.
(§3) Plating was carried out as in example 7, in addition to the controls were carried out: • control of the sterility of the surface (before applying the microbial suspension, a metal table was washed off with a sterile swab, followed by plating on a nutrient medium); • control of the vitality of the microorganism (after applying microbial suspension on the metal table, it was washed off with a sterile swab with subsequent plating on the nutrient medium).
(§4) The contamination density of 1 cm^2 of the surface and the percentage of disinfection were calculated, taking the number of colonies removed from control surfaces as 100%. The criterion for the effectiveness of surface disinfection is not less than 99.99% of the death of test microorganisms, the disinfection time is not more than 120 minutes.

[2] = system: Escherichia coli CDC F-50; test: as above; assay type: cell-based
Experimental: as §1, §2, §3, §4

E. coli CDC F-50 = test: Antiseptic activity on rat skin; assay type: in vivo; conditions: E. coli CDC F-50 on rat skin; antiseptic concentration 0.2%; exposure time 5 min; n = 6
Experimental: The study of the antiseptic activity of compound I in rats […] was carried out in accordance with [R 4.2.2643-10 Metody laboratornykh issledovaniy i ispytaniy mediko-profilakticheskikh dezinfektsionnykh sredstv dlya otsenki ikh effektivnosti i bezopasnosti: Rukovodstvo.—M: Federal'nyy tsentr gigiyeny i epidemiologii Rospotrebnadzora, 2010.—S. 615. R 4.2.2643-10 Laboratory methods for the study and testing of medical prophylactic disinfectants to assess their effectiveness and safety: Guide.—M.:: Federal Center for Hygiene and Epidemiology of Rospotrebnadzor, 2010.—P. 615]. Experiments were carried out on male Wistar rats with a body weight of 180-250 g.
A culture of E. coli CDC F-50, grown on dense nutrient medium for (18-20) hours, was washed with sterile isotonic chloride solution, centrifuged at 5000 rpm for 5 minutes, the supernatant was drained and cells were resuspended with sterile isotonic sodium chloride solution.
The bacterial suspension of microorganisms was brought to a turbidity of […] according to McFarland, which corresponds to a concentration of 1.5×10^7 cells/ml.
Animals were formed in 5 groups of 6 animals each. All manipulations with animals were performed under isoflurane anesthesia (4%—induction of anesthesia (2 min, 1 l/min), 2%—basis narcosis). A portion of 5×5 cm was shaved with a hair clipper on the dorsal part of the body of the animal.
A 0.25 ml microbial suspension containing 1×10^7 CFU of E. coli CDC F-50 was applied to the shaved portion of the rat back with a dispenser and distributed with a sterile disposable spatula over the entire square area. It was left for 2-3 minutes until dry.
Then, a gauze cloth (5×5 cm) was applied to the skin of rats for 5 minutes. In the experimental group, the tissue was pre-wetted with 1 ml of 0.2% solution of compound I, and in the positive control groups, the tissue was dipped in 1 ml of 0.2% miramistin, benzalkonium chloride and chlorhexidine. In the negative control group, the cloth was immersed in 1 ml of sterile saline. […]
After the time required for the cultivation of microorganisms of this species, the results were counted according to the number of colonies grown on the Petri dish. […] After counting the number of colonies grown on Petri dishes, the density of contamination per 1 cm^2 of the surface and the percentage of disinfection were calculated, taking the number of colonies removed from control surfaces and not exposed to antiseptics action as 100%. The percentage of growth inhibition of E. coli CDC F-50 was calculated by the formula: […]

## alkyldimethyl(phenylmethyl) ammonium chloride [Benzalconium chloride]
[1]; exposure 1 min, +BSA
  Inhibition rate (Mean ± SD) of Staphylococcus aureus ATCC 209p growth: 99.99 ± 0.005%
  Inhibition rate (M ± SD) Staphylococcus aureus ATCC 209p: 99.99%
[1]; exposure 1 min, −BSA
  Inhibition rate (Mean ± SD) of Staphylococcus aureus ATCC 209p growth: 99.99%
  Inhibition rate (M ± SD) Staphylococcus aureus ATCC 209p: 99.99%
[1]; exposure 5 min, +BSA
  Inhibition rate (Mean ± SD) of Staphylococcus aureus ATCC 209p growth: 99.99%
  Inhibition rate (M ± SD) Staphylococcus aureus ATCC 209p: 99.99%
[1]; exposure 5 min, −BSA
  Inhibition rate (Mean ± SD) of Staphylococcus aureus ATCC 209p growth: 99.99%
  Inhibition rate (M ± SD) Staphylococcus aureus ATCC 209p: 99.99%
[1]; exposure 15 min, +BSA
  Inhibition rate (Mean ± SD) of Staphylococcus aureus ATCC 209p growth: 99.99%
  Inhibition rate (M ± SD) Staphylococcus aureus ATCC 209p: 99.99 ± 0.005%
[1]; exposure 15 min, −BSA
  Inhibition rate (Mean ± SD) of Staphylococcus aureus ATCC 209p growth: 99.99 ± 0.005%
  Inhibition rate (M ± SD) Staphylococcus aureus ATCC 209p: 100%
[1]; Staphylococcus aureus ATCC 209p, 0.1% solutions
  time after application to effective inhibition of bacterial growth (99.99%): 5 min
[2]; 0.1% solution, exposure 1 min, +BSA
  Inhibition rate (M ± SD) of Escherichia coli CDC F-50 growth: 99.97 ± 0.005%
[2]; 0.1% solution, exposure 1 min, −BSA
  Inhibition rate (M ± SD) of Escherichia coli CDC F-50 growth: 99.96 ± 0.005%
[2]; 0.1% solution, exposure 5 min, +BSA
  Inhibition rate (M ± SD) of Escherichia coli CDC F-50 growth: 99.97 ± 0.005%
[2]; 0.1% solution, exposure 5 min, −BSA
  Inhibition rate (M ± SD) of Escherichia coli CDC F-50 growth: 99.98 ± 0.005%
[2]; 0.1% solution, exposure 15 min, +BSA
  Inhibition rate (M ± SD) of Escherichia coli CDC F-50 growth: 99.99 ± 0.005%
[2]; 0.1% solution, exposure 15 min, −BSA
  Inhibition rate (M ± SD) of Escherichia coli CDC F-50 growth: 100 ± 0.00%
[2]; 0.2% solution, exposure 1 min, +BSA
  Inhibition rate (M ± SD) of Escherichia coli CDC F-50 growth: 99.97 ± 0.00%
[2]; 0.2% solution, exposure 1 min, −BSA
  Inhibition rate (M ± SD) of Escherichia coli CDC F-50 growth: 99.99 ± 0.005%
[2]; 0.2% solution, exposure 5 min, +BSA
  Inhibition rate (M ± SD) of Escherichia coli CDC F-50 growth: 99.99 ± 0.005%
[2]; 0.2% solution, exposure 5 min, −BSA
  Inhibition rate (M ± SD) of Escherichia coli CDC F-50 growth: 100%
[2]; 0.2% solution, exposure 15 min, +BSA
  Inhibition rate (M ± SD) of Escherichia coli CDC F-50 growth: 100 ± 0.00%
[2]; 0.2% solution, exposure 15 min, −BSA
  Inhibition rate (M ± SD) of Escherichia coli CDC F-50 growth: 100%
[2]; Escherichia coli CDC F-50, 0.1% solutions
  time after application to effective inhibition of bacterial growth: 15 min
[2]; Escherichia coli CDC F-50, concentration 0.2%, test without protein load
  time to effective inhibition of bacterial growth: 1 min
E. coli CDC F-50
  Growth inhibition rate (M ± SD): 96.8 ± 2.0%
